In US20110152166A1, “METHOD OF MODULATION OF PROTEIN PHOSPHORYLATION-DEPENDENT CONFORMATIONAL TRANSITIONS WITH LOW MOLECULAR WEIGHT COMPOUNDS” (priority 2006, published 2011):
Ends that are not written are not given here.

Key:
[1] = molecular target: T1, PKA (Homo sapiens, UniProt P17612); experiment: AGC kinase panel activity assay (Kemptide); format: biochemical; conditions: for PKA (%) activity: 1% DMSO = 100%
T1 construct: purchased Sigma
Description: Protein kinase activity tests were performed essentially as previously described (Balendran et al., 2000; Biondi et al., 2000; Biondi et al., 2001). Substrates used were either MBP (for PKCζ or polypeptides (Crosstide for PKB, S6K, SGK and PRK2; T308tide for PDK1, and Kemptide for PKA). PKA (Sigma) was measured in the presence of 100 μM cAMP. Alternatively, assays were performed in a 96 well format, aliquots spotted on p81 phosphocellulose papers (Whatmann), washed in 0.01% phosphoric acid, dried, and then exposed and analysed using Phospholmager technology (Storm, Molecular Dynamics). Activity measurements were performed in duplicates with less than 10% difference between duplicate pairs. Experiments were repeated at least twice, although most of the experiments were repeated multiple times, with similar results.
Activity assays for each kinase were performed as described in Materials and Methods in the presence of 1% DMSO (100%). Except PKA, all protein kinases were produced as a GST-fusion. S6K1, PKBα, SGK mutants used were S6K1-T2-[Thr412Glu], PKBa[Ser473Asp] and ΔN-SGK[Ser422Asp].

[2] = molecular target: T2, GST-PDK1 1-556 (Homo sapiens, UniProt O15530); experiment: Surface plasmon resonance, GST-PDK1 binding to biotin-PIFtide and displacement by compounds; conditions: competition, pre-incubation with PDK1
T2 construct: made in house; host or cells: HEK293
T2 sequence (O15530 1-556): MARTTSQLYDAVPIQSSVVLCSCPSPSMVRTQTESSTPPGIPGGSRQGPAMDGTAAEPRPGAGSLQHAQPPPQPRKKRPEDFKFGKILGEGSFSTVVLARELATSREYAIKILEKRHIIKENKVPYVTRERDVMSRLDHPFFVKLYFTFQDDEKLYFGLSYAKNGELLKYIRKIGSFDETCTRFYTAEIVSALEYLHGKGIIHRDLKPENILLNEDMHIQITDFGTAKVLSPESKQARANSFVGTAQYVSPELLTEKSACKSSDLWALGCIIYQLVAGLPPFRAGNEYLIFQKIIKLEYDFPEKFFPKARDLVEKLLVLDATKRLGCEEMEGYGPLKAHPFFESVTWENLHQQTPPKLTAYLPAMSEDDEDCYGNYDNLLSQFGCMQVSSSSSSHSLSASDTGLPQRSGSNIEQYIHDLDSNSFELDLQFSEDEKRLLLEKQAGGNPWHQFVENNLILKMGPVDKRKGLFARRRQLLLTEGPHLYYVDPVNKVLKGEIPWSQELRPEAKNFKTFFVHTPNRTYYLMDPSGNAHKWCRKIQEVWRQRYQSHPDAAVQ
Description: FIG. 3—Small compounds displace the binding of PDK1 1-556 to the HM peptide derived from its substrate PRK2, PIFtide. Surface plasmon resonance measurements were carried out on a BiaCore system to measure the interaction between GST-PDK1 and biotin-PIFtide coupled to a streptavidin-coated chip. (A) Direct measurement of PDK1 interaction with biotin-PIFtide. PDK1 was injected at the indicated concentrations (nM). For the following competition experiments, PDK1 45 nM was used. (B) PDK1 interaction with biotin-PIFtide was abolished by pre-incubation with PIFtide. […] The data points represent the maximal response units obtained after 30 s injection in the presence of the indicated concentration of compound. In (A) and (B) the spikes at the start and end of injection have been eliminated for clarity.
Binding of PDK1 to PIFtide was analysed by surface plasmon resonance on a BiaCore 3000 system using a streptavidin-coated Sensor chip (SA) and biotin-PIFtide, as previously described (Biondi et al., 2001). Biotin-PIFtide was bound to the chip to a level of 15 to 25 response units in different experiments. GST-PDK1 bound to biotin-PIFtide with an affinity of 90 nM, in good agreement with previous data obtained using the BiaCore system. For interaction-displacement assays, GST-PDK1 (60 nM) was injected (30 μl/min) in a buffer containing 10 mM HEPES pH 7.5, 150 mM NaCl, 0.005% Tween20, 1 mM DTT and 1% DMSO, in the presence or absence of compounds. GST-PDK1 was pre-incubated with compounds for 1 to 10 minutes before injection into the system, with similar results. Experiments were performed at least twice using different biotin-PIFtide coated chips, with similar results obtained on each occasion.

[3] = molecular target: GST-S6K11-365 (Rattus norvegicus, UniProt P67999); experiment: Global amide hydrogen exchange (HXMS); parameters: made in house; conditions: early time points; peptide 150 molar excess
Excerpt: (A) Effect of S6K1 tail peptides, described in the legend to FIG. 13, on global deuteron uptake by purified GST-56K11-365. (B) Kinase activity of wt and mutant GST-PKCζ. (C) Global deuteron uptake by wt and mutant GST-PKCζ. (D) Local deuteron uptake by wt and mutant GST-PKCζ. In the PKCζ model, peptides showing strong and no-or-slight protection by the tail phosphate are shown in pink and grey, respectively. The panels show HX curves of the peptides. Experiments were repeated 2 times (A, C, D) or 3 times (B) and data are means±range (A, C) or ±SD (B)
Amide hydrogen (^1H/^2H) exchange monitored by mass spectrometry (HXMS). D2O (99.9 atom % D) was obtained from Cambridge Isotope Laboratories. Isotopic exchange was initiated by diluting 8 μl 20-40 μM protein in 300 μl deuterated buffer (25 mM Tris, 150 mM NaCl, 1 mM dithiothreitol, 10 mM MgCl2, 25 mM glutathione, pD 7.1 uncorrected value). The exchange was carried out at 30° C., and 75 μl aliquots were collected after 1 min, 5 min, 15 min, and 45 min. […]
The LC setup was described previously (Jorgensen et al., 2004), with the modification that proteins were desalted for 5 min and eluted with a 9 min linear gradient (14% to 70% acetonitrile, 0.05% TFA) to separate the free GST from the GST-tagged kinases of interest in the global hydrogen exchange analysis. […] The HXMS data on peptide level were analyzed by HX-Express (Weis et al., 2006). […]

Chain of GST-S6K11-365 (P67999 24-388): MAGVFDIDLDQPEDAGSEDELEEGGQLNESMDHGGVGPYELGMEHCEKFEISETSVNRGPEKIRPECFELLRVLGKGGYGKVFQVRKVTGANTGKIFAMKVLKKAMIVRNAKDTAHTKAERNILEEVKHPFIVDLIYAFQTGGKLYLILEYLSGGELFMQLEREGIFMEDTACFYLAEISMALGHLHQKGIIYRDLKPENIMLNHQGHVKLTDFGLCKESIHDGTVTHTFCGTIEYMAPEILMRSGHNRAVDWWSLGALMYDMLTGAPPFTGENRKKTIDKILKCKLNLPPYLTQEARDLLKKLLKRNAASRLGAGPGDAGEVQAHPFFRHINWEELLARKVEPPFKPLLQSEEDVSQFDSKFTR

In the case of `O=C(O)CSC(CC(=O)c1ccc(Cl)cc1)c1ccccc1` (stereo not shown) [Compound 1], the “effect on PKA activity (in words)” value ([1]; 20 μM) was “no significant effect”, the “PKA (%) activity” value ([1]; 20 μM compound) was 100% and the “PKA (%) activity” value ([1]; 200 μM compound) was 94%. For the same molecule, the “displacement of PDK1 binding to biotin-PIFtide (in words)” value (from here on “displacement of PDK1 binding”) [2] was “able to disrupt the binding”.

With `COC(=O)CSC(CC(=O)c1ccc(Cl)cc1)c1ccccc1` (stereo not shown) [Compound 2] the “PKA (%) activity” value ([1]; 20 μM compound) was 109%, the “PKA (%) activity” value ([1]; 200 μM compound) was 103% and the “displacement of PDK1 binding” value [2] was “did not displace the binding significantly”.

For “REPRILSEEEQEMFRDFDYIADWC [PIFtide, reference compound]”, the “displacement of PDK1 binding” value [2] was “abolished this interaction”.

“S371/T389: synthetic S6K1 tail peptide (residues 366-395), non-phosphorylated” was tested, and the “fewer deuterons incorporated in S6K11-365 versus no peptide” value [3] was “no effect”.

“S371/pT389: synthetic S6K1 tail peptide (residues 366-395) phosphorylated in the HM” was tested, and the “fewer deuterons incorporated in S6K11-365 versus no peptide” value [3] was “≈ 10 deuterons”.
